Results published in BindingDB's records for doi:10.7270/Q2PZ576Z (The Scripps Research Institute Molecular Screening Center, 2007).

The compounds below were run against Sphingosine 1-phosphate receptor 3 (Homo sapiens, UniProt Q99500) (assay: S1P3 receptor activation, EC50 – cell-based, NFAT-BLA reporter, dose response (AID 439)). Details: not given.
Sequence of Sphingosine 1-phosphate receptor 3 (Q99500 whole entry): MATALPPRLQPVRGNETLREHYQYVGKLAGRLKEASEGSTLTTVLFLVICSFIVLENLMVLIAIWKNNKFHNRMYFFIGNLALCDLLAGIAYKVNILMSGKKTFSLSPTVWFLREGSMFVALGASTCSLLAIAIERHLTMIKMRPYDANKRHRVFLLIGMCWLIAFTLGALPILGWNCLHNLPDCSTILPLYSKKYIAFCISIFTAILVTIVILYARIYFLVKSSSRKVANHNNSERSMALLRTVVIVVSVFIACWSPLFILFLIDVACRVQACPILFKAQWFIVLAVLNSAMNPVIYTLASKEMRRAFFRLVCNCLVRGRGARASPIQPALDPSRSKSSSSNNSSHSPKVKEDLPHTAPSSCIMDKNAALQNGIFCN

First: Cc1cc(C(=O)N(C2CCCCC2)C2CCCCC2)no1 [MLS000087301]
Second: CCCc1cc(C(=O)N(C2CCCCC2)C2CCCCC2)no1 [MLS000116372]
The EC50 of the first is 9.5-fold higher: 25.6 µM for the first, 2.7 µM for the second.

O=C(Cc1cccs1)NCc1cn2ccccc2n1 [MLS000103862] and C=CCn1c(=O)c(C#N)cc2c(=O)n3ccccc3nc21 [SMR000029848] cannot be ordered by EC50: over 45 µM for the first, over 45 µM for the second.

Compared with Cc1ccc(-n2c(=O)[nH]cc(C(=O)Nc3ccc4c(c3)OCCO4)c2=O)cc1C [N-(2,3-dihydro-1,4-benzodioxin-6-yl)-3-(3,4-dimethylphenyl)-2,4-bis(oxidanylidene)-1H-pyrimidine-5-carboxamide], CCOC(=O)c1cc2ccc(OC(=O)c3ccco3)cc2oc1=O [ethyl 7-(2-furoyloxy)-2-oxo-2H-chromene-3-carboxylate] is lower in EC50: over 45 µM for the first, 7.18 µM for the second.

First: Cc1cc(C)n(-c2nc(NCCO)c3c4c(sc3n2)CCCC4)n1 [SMR000046729]
Second: Cc1ccc2nc3c(cc(C#N)c(=O)n3-c3nccs3)c(=O)n2c1 [SMR000047276]
The EC50 of the first is lower: 6.69 µM for the first, over 45 µM for the second. The first is the more potent here.

Same assay, conditions: inactive by the depositor's call

First: Nc1c(C(=O)NC2CCCC2)c2nc3ccccc3nc2n1CC1CCCO1 (stereo not given) [MLS000080255]
Second: CC(C)Cn1c(N)c(C(=O)NCc2cccs2)c2nc3ccccc3nc21 [SMR000043082]
The EC50 of the first is 2-fold lower: 14.7 µM for the first, 29.7 µM for the second.

Compared with Cc1cccc2cc3c(NC(=O)c4ccccn4)nn(C)c3nc12 [MLS000082760], N=c1c(C(=O)NCc2ccco2)cc2c(=O)n3ccccc3nc2n1Cc1ccc(Cl)cc1 [SMR000047818] is 2-fold lower in EC50: 127 µM for the first, 63.9 µM for the second.

Going from Cc1ccc(NC(=O)CC2Nc3ccccc3NC2=O)cc1Cl (stereo not given) [N-(3-chloranyl-4-methyl-phenyl)-2-(3-oxidanylidene-2,4-dihydro-1H-quinoxalin-2-yl)ethanamide] to Cc1onc(-c2c(Cl)cccc2Cl)c1C(=O)N1CCc2ccccc21 [[3-(2,6-dichlorophenyl)-5-methyl-1,2-oxazol-4-yl]-(2,3-dihydroindol-1-yl)methanone], the EC50 falls from 80.8 µM to 30.8 µM (2.6-fold). The second is the more potent here.

CCC(C)c1ccc2oc(-c3ccc(NC(=O)c4nnc[nH]4)cc3)nc2c1 (stereo not given) [N-[4-(5-sec-butyl-1,3-benzoxazol-2-yl)phenyl]-1H-1,2,4-triazole-3-carboxamide] was tested, and the EC50 was 19.3 µM.
